“Also recorded” adds a separate entry of the source.
Tested on: bovine taste receptor cell membranes (taste receptors) with transducin
Assay: G protein activation assay (trypsin sensitivity): activation of transducin by bitter tastant plus taste membranes
Format: biochemical, Bovine (Bos primigenius)
From the text: Taste receptor is contacted with gustducin or transducin and tastant, in the presence or absence of test inhibitor, under conditions suitable for activation of the G-protein present. […] In specific non-limiting embodiments, a subunits of transducin or gustducin may be combined with βγ subunits prior to this step, as set forth above. To the reaction mixture comprising taste receptors and gustducin or transducin, test inhibitor and/or bitter tastant may be added, and the resulting solution incubated to permit interaction of the elements.
In preferred embodiments, activation is assessed by a trypsin digestion assay. […] In a specific, non-limiting example, to perform a trypsin digestion assay according to the invention, TPCK-treated trypsin (1:25 trypsin to total protein in the reaction mixture) may be added, and the digestion may be performed at room temperature for about 15 minutes and stopped by adding soybean trypsin inhibitor (6:1 mol/mol inhibitor to trypsin). […] The separated polypeptides may then be transferred by electro-blotter to a poly (vinylidene difluoride) membrane blocked by the addition of 5% BLOTTO [50 mM Tris-HCI, pH 7.4/100 mM NaCl/5% nonfat dry milk], (30 min). G-protein peptides may then be visualized by binding of antibody directed toward transducin or gustducin, followed, for example, by binding of a detectably labeled secondary antibody. If a horseradish peroxidase-labeled secondary antibody is used, binding may be visualized by developing with bicinchoninic acid staining reagents and exposure to x-ray film.
G Protein Activation Assays. Bovine (Bos primigenius) tongues were collected fresh from a local slaughterhouse and transported on ice to the laboratory. Circumvallate papillae were hand dissected, frozen in liquid nitrogen, and stored at −80° C. until use. […] The pelleted membranes were rinsed twice, resuspended in homogenization buffer lacking protease inhibitors, and further homogenized by 20 passages through a 25-gauge needle. Aliquots were either flash frozen or stored on ice until use. […] The separated polypeptides were transferred by electro-blotter to a poly (vinylidene difluoride) membrane, which was blocked by the addition of 5% BLOTTO [50 mM Tris-HCI, pH 7.4/100 mM NaCl/5% nonfat dry milk], (30 min), then transducin peptides were visualized by binding of transducin antiserum and horseradish peroxidase-labeled goat anti-rabbit secondary antibody, followed by developing with bicinchoninic acid staining reagents from Bio-Rad and exposure to x-ray film.
Chemicals. All bitter tastant and buffer chemicals were of the highest purity available and were purchased either from Sigma or Boehringer Mannheim, unless otherwise noted. […] The rabbit polyclonal antitransducin antibody was a kind gift of Mel Simon and John Watson (California Institute of Technology, Pasadena, Calif.).

SMILES: Nc1ncnc2c1ncn2[C@@H]1O[C@H](COP(=O)(O)O)[C@@H](O)[C@H]1O [AMP, adenosine 5′ monophosphate]
- inhibition of activation of transducin by QUI plus bovine taste membranes (1.0 mM QUI, AMP 0.01-2.5 mM, FIG. 1B): inhibit; also recorded: inhibited in a dose-dependent fashion
- inhibition of taste membrane-dependent activation of transducin by atropine hydrochloride (AMP 2.5 mM, ATR 5.0 mM, FIG. 1C): inhibits; also recorded: inhibitory effect
- inhibition of taste membrane-dependent activation of transducin by DEN (AMP 2.5 mM, DEN 5.0 mM, FIG. 1C): inhibits; also recorded: inhibitory effect
- inhibition of taste membrane-dependent activation of transducin by nicotine hemisulfate (AMP 2.5 mM, NIC 5.0 mM, FIG. 1C): inhibits; also recorded: inhibitory effect
- inhibition of taste membrane-dependent activation of transducin by QUI (AMP 2.5 mM, QUI 1.0 mM, FIG. 1C): inhibits; also recorded: inhibitory effect
- inhibition of taste membrane-dependent activation of transducin by strychnine hydrochloride (AMP 2.5 mM, STR 5.0 mM, FIG. 1C): inhibits; also recorded: inhibitory effect
- inhibition of in vitro activation of transducin (G-protein) by taste membranes plus bitter compounds, summary statement (DEN, QUI and other bitter compounds, concentrations not given): inhibits
- inhibition of taste membrane activation of transducin by caffeic acid (concentrations not given): inhibitory effect
- inhibition of taste membrane activation of transducin by naringin (concentrations not given): inhibitory effect
- inhibition of taste membrane activation of transducin by quinacrine (concentrations not given): inhibitory effect
- inhibition of taste membrane activation of transducin by sparteine (concentrations not given): inhibitory effect
- inhibition of activation of transducin by DEN plus bovine taste receptor membranes (inhibitor 0.25, 0.5, 1.25, 2.5, 5.0 mM, DEN 5.0 mM, shift from 32-kDa to 23-kDa fragments, FIG. 1A/1E): inhibit; also recorded: inhibited in a dose-dependent fashion

Reference: patent USRE40594E1, “Inhibitors of the bitter taste response” (Mount Sinai School of Medicine of New York University, priority 1998, dated 2008)
